Data on two compounds can be found in US10570179B2, “Substituted urea depsipeptide analogs as activators of the CLPP endopeptidase” (priority 2016, dated 2020).

Converted amounts (≈) assume the structure as drawn. Numbered stars: 1 amine (or outer) side, 2 acyl side, 3 side chain; on linkers, the order of the positions; unused ones are H or OH. Bridge positions count the residues as written; N and C are the ends. Square brackets hold non-standard residues; d marks the D form. Peptide text beside a SMILES is read from it. * marks the point of attachment. Piperazine(2S-CO,4-Me) = CN1CCN[C@H](C(=O)O)C1; Phe(3-Me) = Cc1cccc(C[C@H](N)C(=O)O)c1; NH(4-Cl-2-F-phenyl) = Fc1cc(Cl)ccc1N*; Pro(4R-Me) = C[C@H]1CN[C@H](C(=O)O)C1; Hyp = O=C(O)[C@@H]1C[C@@H](O)CN1; aThr = C[C@H](O)[C@H](N)C(=O)O; Pip = O=C(O)[C@@H]1CCCCN1; CO = O=C([*:1])[*:2]

Data set [1] can be described thus: Cytotoxicity assay (CellTiter-Glo cell viability). The class given is cell-based. The conditions noted are these: African green monkey. The method, then: Cytotoxicity was determined by determining the effect of compounds on cell viability. Vero (kidney epithelial cells; ATCC CCL-81) monolayers were trypsinized and 5000 cells/well were seeded (10-15% confluency) into white-wall, flat bottom 96 well microwell plates (Corning) using enriched Dulbecco's Modified Eagle's Medium (Hyclone: DMEM/High Glucose) containing 10% Fetal Bovine Serum (ATCC-30-2020). Plates were incubated overnight at 37° C. in the presence of 5% CO2. Drug-free media was then replaced with media containing serial dilutions of test compound or DMSO carrier. After an additional 72 hours of incubation, viability was indirectly measured using the CellTiter-Glo® Luminescent Cell Viability (Promega) assay. Assay plates were read at peak emission wavelength of 560 nm using a EnVision® Multilabel Plate Reader (Perkin Elmer) or PHERAstar FS Multilabel reader (BMG, Cary, N.C.). The concentration of test compounds that inhibited growth by 50% (IC50 value) was computed using nonlinear regression based fitting of inhibition curves using log [inhibitor] vs. response-variable slope (four parameters)—symmetrical equation, in GraphPad Prism version 6 [GraphPad Software, La Jolla, Calif. USA, www.graphpad.com]. For each experiment, compounds were tested in duplicate. IC50 values presented are the range of two biologically independent experiments.

In data set [2] the test system is B. subtilis. Description: Minimal inhibitory concentration, microbroth dilution. Type of data set: cell-based. As to conditions: Bacillus subtilis; MIC; read-out: Minimal Inhibitory Concentrations (μM) B. subtilis. Put shortly: (§1)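 Susceptibility testing used the CLSI dilution standard, with bacteria at ~10^5 cfu/mL exposed to a two-fold compound series beginning at 200 μM final. The endpoint is the lowest concentration showing no growth after overnight incubation (37 °C, aerobic).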
(In general: In broth dilution the organism is exposed to a series of concentrations in liquid medium.)

Data set [3] concerns E. faecails. The data set is described as above. The class given is cell-based. As to conditions: Enterococcus faecalis; MIC; read-out: Minimal Inhibitory Concentrations (μM) E. faecails. Put shortly:
as §1

Data set [4] concerns MRSA NRS70. The description is as above. Type of data set: cell-based. The conditions noted are these: Staphylococcus aureus; MIC; read-out: Minimal Inhibitory Concentrations (μM) MRSA NRS70. The procedure, abridged: as §1
Data set [5] has as its system S. aureus ATCC 29213. Described as above. Type of data set: cell-based. The conditions noted are these: Staphylococcus aureus, ATCC29213; MIC; read-out: Minimal Inhibitory Concentrations (μM) S. aureus ATCC 29213. The procedure, abridged:
as §1

In data set [6] the test system is S. aureus USA 300. The description is as above. Type of data set: cell-based. As to conditions: Staphylococcus aureus, USA300; MIC; read-out: Minimal Inhibitory Concentrations (μM) S. aureus USA 300. Put shortly: as §1
In data set [7] the test system is S. pneumoniae. The data set is described as above. The class given is cell-based. The conditions noted are these: Streptococcus pneumoniae; MIC; read-out: Minimal Inhibitory Concentrations (μM) S. pneumoniae. The procedure, abridged:
as §1

The test system of data set [8] is S. pyogenes. The data set is described as above. Type of data set: cell-based. As to conditions: Streptococcus pyogenes; MIC; read-out: Minimal Inhibitory Concentrations (μM) S. pyogenes. The procedure, abridged:
as §1

Data set [9] can be described thus: Plasma protein binding, rapid equilibrium dialysis. As to conditions: mouse, 4 h, 10 μM, pH 7.4. The class given is in vitro ADME, mouse.
Data set [10] in a line: Plasma pharmacokinetics. The class given is in vivo, male BALB/c mice. The conditions noted are these: male, BALB/c, mouse, in vivo, iv; for Vd: 10 mg/kg, Route i.v., read-out: Vss.

For orientation: IC50 means the point on the concentration scale where inhibition reaches its midpoint. For orientation: AUC(0-inf) means total exposure, with the tail of the curve extrapolated. The AUC(0-t) is exposure summed from dosing to a finite time, without extrapolation to infinity. For orientation: clearance means a measure of how efficiently the substance is removed, as volume per time. By half-life is commonly meant how long it takes for the measured level to halve. In the case of `Cc1cccc(C[C@H](NC(=O)Nc2ccc(Cl)cc2F)C(=O)N[C@@H]2C(=O)N3C[C@H](O)C[C@H]3C(=O)N3CCCC[C@H]3C(=O)N[C@@H](C)C(=O)N3C[C@H](C)C[C@H]3C(=O)O[C@H]2C)c1` [Compound 6, (S)-2-(3-(4-CHLORO-2-FLUOROPHENYL)UREIDO)-N-((2R,6S,8AS,14AS,16R,20S,21S,23AS)-16-HYDROXY-2,6,21-TRIMETHYL-5,8,14,19,23-PENTAOXOOCTADECAHYDRO-1H,5H,14H,19H-PYRIDO[2,1-I]DIPYRROLO[2,1-C:2′,1′-L][1]OXA[4,7,10,13]TETRAAZACYCLOHEXADECIN-20-YL)-3-(M-TOLYL)PROPANAMIDE] ({NH(4-Cl-2-F-phenyl)-CO}-[Phe(3-Me)][aThr][Hyp][Pip]A[Pro(4R-Me)]; ester 2-C), the IC50 at 72 h in [1] turned out to be 50.5 ± 3.8 µM. Moreover, the MIC came to 0.156 µM (≈ 0.131 µg/mL) in [2]; 0.078 µM (≈ 0.0655 µg/mL) in data set [3]; 0.078 µM (≈ 0.0655 µg/mL) in [4]; 0.078 µM (≈ 0.0655 µg/mL) in data set [5]; 0.156 µM (≈ 0.131 µg/mL) in data set [6]; 0.039 µM (≈ 0.0328 µg/mL) in data set [7]. Also, the MIC in data set [8] turned out to be 0.156 µM (≈ 0.131 µg/mL). Besides, in data set [9], the Mouse turned out to be 99.5 ± 0.1%. This compound also gave an area under the curve AUC(0-inf) in data set [10] of 11900 ng·h/mL. The same compound yielded an AUC(0-t) in data set [10] of 11500 ng·h/mL. The “C^0” value in data set [10] was determined as 34296.43 ng/mL. In data set [10], this compound had a clearance of 14 mL/min/kg. Also, the half-life in [10] is 2.82 h. Further, the Vd in data set [10] was determined as 1.02 L/kg.
With `Cc1cccc(C[C@H](NC(=O)Nc2ccc(Cl)cc2F)C(=O)N[C@@H]2C(=O)N3CCC[C@H]3C(=O)N3CCN(C)C[C@H]3C(=O)N[C@@H](C)C(=O)N3C[C@H](C)C[C@H]3C(=O)O[C@H]2C)c1` [Compound 11, (S)-2-(3-(4-CHLORO-2-FLUOROPHENYL)UREIDO)-N-((6AS,12S,13S,15AS,17R,21S,23AS)-2,13,17,21-TETRAMETHYL-6,11,15,20,23-PENTAOXOOCTADECAHYDRO-2H,6H,11H,15H-PYRAZINO[2,1-I]DIPYRROLO[2,1-C:2′,1′-L][1]OXA[4,7,10,13]TETRAAZACYCLOHEXADECIN-12-YL)-3-(M-TOLYL)PROPANAMIDE] ({NH(4-Cl-2-F-phenyl)-CO}-[Phe(3-Me)][aThr]P[Piperazine(2S-CO,4-Me)]A[Pro(4R-Me)]; ester 2-C), the IC50 at 72 h in [1] was > 10 µM. Further, the MIC in data set [2] worked out at 0.078 µM (≈ 0.0655 µg/mL); in data set [3] it was 0.078 µM (≈ 0.0655 µg/mL); in data set [4], 0.078 µM (≈ 0.0655 µg/mL); in data set [5], 0.078 µM (≈ 0.0655 µg/mL); in data set [6], 0.078 µM (≈ 0.0655 µg/mL); in data set [7], 0.039 µM (≈ 0.0327 µg/mL). The MIC in data set [8] is 0.078 µM (≈ 0.0655 µg/mL). Further, in data set [9], the Mouse is reported as 98.8 ± 0.4%. The AUC(0-inf) in data set [10] was found to be 5040 ng·h/mL. The compound further showed an AUC(0-t) in [10] of 5000 ng·h/mL. Besides, the “C^0” value in [10] was found to be 9127.72 ng/mL. For the same compound, the clearance in data set [10] turned out to be 33.1 mL/min/kg. Moreover, the half-life in data set [10] is 1.35 h. Further, in [10], the Vd was determined as 2.28 L/kg.
